The values that follow come from patent publication US10519098B2, “Aromatic derivatives as anti-malarial” (Council of Scientific & Industrial Research, priority 2014, dated 2019).

The test system of data set [1] is Chloroquine-sensitive (3D7) strain of P. falciparum. The data set is described as follows: Malaria SYBR Green I-based fluorescence (MSF) assay, 3D7 strain. It is filed as cell-based. Particulars: Plasmodium falciparum. The method, then:
(§1) The stock (5 mg/mL or 10 mM) solutions of extracts were prepared in DMSO and required dilutions were made in culture medium.
(§2) Two-fold serial dilutions of test samples were made in 96 well plates and incubated with 1.0% parasitized cell suspension containing 0.8% parasitaemia (Asynchronous culture with more than 80% ring stages). The plates were incubated at 37° C. in CO2 incubator in an atmosphere of 5% CO2 and air mixture. 72 hours later 100 μL of lysis buffer containing 2× concentration of SYBR Green-I (Invitrogen) was added to each well and incubated for one hour at 37° C. The plates were examined at 485±20 nm of excitation and 530±20 nm of emission for relative fluorescence units (RFUs) per well using the fluorescence plate reader (FLX800, BIOTEK). IC50 values were obtained by Logit regression analysis of dose response curves (Singh et al. 2011).

For data set [2], the system named is Plasmodium falciparum D(6) clone. Particulars: J Nat Prod. 2004, 67(1), 88-90; read-out: IC(50) against Plasmodium falciparum D(6) clone; cited from earlier work.
The test system of data set [3] is chloroquine resistant P. yoelii (N-67). The data set is described as follows: In vivo evaluation in P. yoelii (N-67) Swiss mice model. Particulars: one value per mouse. The method, then:
The molecules were tested at 100 mg/kg dose through intraperitoneal route. The mice received infective inoculum containing 1×10^5 parasites on day 0 and then received four doses of test compound on day 0-3 once daily. Five infected mice were used for each molecule and five infected mice were kept as untreated control. Arteether (5 mg/kg, ×4, intramuscular) was used as positive control. Thin blood smear from tail blood of each mouse was prepared on day 4. The blood smears were fixed in methanol, stained with Giemsa's stain and examined under the light microscope (100×oil immersion). At least 10-15 fields per smear were scanned to obtain percent parasitaemia in treated as well as untreated mice. If significant suppression in percent parasitaemia is observed on day 4, the monitoring continues up to day 28.

Data set [4] is described as follows: in vitro. As to conditions: monkey. Here is the method:
(§3) The cells were incubated with test sample dilutions for 72 h and MTT was used as reagent for detection of cytotoxicity. Podophyllotoxin (SIGMA) was used as the standard reference drug.

Data set [5] has as its system Chloroquine-resistant (K1) strain of P. falciparum. Put plainly: Malaria SYBR Green I-based fluorescence (MSF) assay, K1 strain. Particulars: Plasmodium falciparum. Format: cell-based. Here is the method:
as §1, §2

Data set [6] relates to P. falciparum W(2) clone. As to conditions: J Nat Prod. 2004, 67(1), 88-90; read-out: IC(50) against P. falciparum W(2) clone; cited from earlier work.
In data set [7] the test system is multidrug resistant human nasopharyngeal carcinoma (KB). Particulars: when used with vincristine; Bioorg. Med. Chem. Lett. 2012, 22 (24), 7726-7729; cited from earlier work.
For data set [8], the system named is Vero cell line (C1008; Monkey kidney fibroblast). Put plainly: in vitro. Particulars: 72 h. Here is the method:
as §3

Setting [9] is: 3D7, range given for listed compounds, read-out: IC50 values against 3D7 culture.
Where [10] appears, read: P. falciparum 3D7, 72 hours incubation, read-out: IC50 against 3D7.
Where [11] appears, read: 100 mg/kg intraperitoneal, four doses day 0-3 once daily.
[12] abbreviates: K1, range given for listed compounds, read-out: IC50 values against K1 culture.
Where [13] appears, read: P. falciparum K1, 72 hours incubation, read-out: IC50 against K1.

SMILES strings stand for the structures. Values joined by “and” are separate entries in the source; they are usually repeats but may differ in a detail not shown here. Identical values can stand only once. Like-named read-outs stand apart in the source and are kept apart here.

For `COc1ccc([C@@H](CNC(=O)/C=C/c2ccccc2)OC(=O)/C=C/c2ccccc2)cc1OC` [Compound 1, (S)-2-cinnamamido-1-(3,4-dimethoxyphenyl)ethyl cinnamate], the melting point is 132 to 135 °C. Also, in data set [1] (setting [9]), the IC50 lay within 2 to 7 µM. Further, the IC50 in data set [1] (setting [10]) amounted to 3.9 µM. For the same compound, the IC50 in data set [2] is 2.04 µM. For the same compound, the “% parasitaemia on day 4 in 5 individual mice” value (from here on “% parasitaemia”) in [3] (setting [11]) was 09.50% and 13.76% and 11.93% and 11.72% and 13.20%. In [4], this compound had a CC50 at 72 h of 80.7 µM. Further, the IC50 in data set [5] (setting [12]) lay in the range of 1.5 to 4 µM. In [5] (setting [13]), the IC50 was determined as 2.56 µM. The IC50 in [6] is 3.06 µM.
Take `COc1cc(C(=O)OCC(OC(=O)c2cc(OC)c(OC)c(OC)c2)c2cc(OC)c(OC)c(OC)c2)cc(OC)c1OC` (centres unmarked) [bis-trimethoxybenzoyl derivative]: the “chemoreversal activity, fold more active than verapamil” value in [7] is given as 340 fold.
For the compound `COc1ccc([C@@H](CNC(=O)/C=C/c2ccccc2)OC(=O)CCc2ccccc2)cc1OC` [Compound 49, (S)-2-cinnamamido-1-(3,4-dimethoxyphenyl)ethyl 3-phenylpropanoate], the melting point lay in the range of 101 to 103 °C. The IC50 in data set [1] (setting [10]) is above 10 µM. In data set [8], this compound displayed a CC50 of 36.9 µM. For the same compound, the IC50 in [5] (setting [13]) is above 10 µM.
On to `O=C(/C=C/c1ccccc1)OC[C@H](OC(=O)/C=C/c1ccccc1)c1ccc2ccccc2c1` [Compound 54, (R)-1-(naphthalen-2-yl)ethane-1,2-diyl (2E,2′E)-bis (3-phenylacrylate)], for which the melting point lay within 123 to 124 °C. The IC50 in data set [1] (setting [10]) was above 10 µM. The same compound had a CC50 in data set [8] of 181 µM. The IC50 in data set [5] (setting [13]) stood at 2.15 µM.
Consider `COc1cc(/C=C/C(=O)NC[C@@H](OC(=O)/C=C/c2cc(OC)c(OC)c(OC)c2)c2cc(OC)c(OC)c(OC)c2)cc(OC)c1OC` [Compound 58, (S)-1-(3,4,5-trimethoxyphenyl)-2-((E)-3-(3,4,5-trimethoxyphenyl)acrylamido)ethyl (E)-3-(3,4,5-trimethoxyphenyl)acrylate], for which the melting point was in the range of 67 to 69 °C. In data set [1] (setting [9]), the IC50 was in the range of 2 to 7 µM. For the same compound, the IC50 in [1] (setting [10]) came out at 1.89 µM. For the same compound, the “% parasitaemia” value in data set [3] (setting [11]) was 10.10% and 10.16% and 13.50% and 07.50% and 11.92%. The compound further yielded a CC50 at 72 h in [4] of 42.7 µM. Also, in [5] (setting [12]), the IC50 is 1.5 to 4 µM. The IC50 in data set [5] (setting [13]) was 1.93 µM.
On to `CCO[C@H]1O[C@@H]2O[C@@]3(C)CC[C@H]4[C@H](C)CC[C@@H]([C@H]1C)[C@@]24OO3` [Arteether, reference compound], for which, in [3] (positive control, 5 mg/kg ×4 intramuscular), the “% parasitaemia” value is listed as 0.0%.
In the case of `CCCC(=O)O[C@H](CNC(=O)/C=C/c1ccccc1)c1ccc(OC)c(OC)c1` [Compound 52, (S)-2-cinnamamido-1-(3,4-dimethoxyphenyl)ethyl butyrate], the IC50 in data set [1] (setting [10]) and in [5] (setting [13]) was above 10 µM each time. In addition, in data set [8], the CC50 is 29.9 µM.
Compound `O=C(/C=C/c1ccccc1)OC[C@@H](OC(=O)/C=C/c1ccccc1)c1ccc2ccccc2c1` [Compound 53, (S)-1-(naphthalen-2-yl)ethane-1,2-diyl (2E,2′E)-bis(3-phenylacrylate)] yielded a melting point of 120 to 121 °C. Moreover, the IC50 in data set [1] (setting [10]) was above 10 µM. In data set [8], this compound had a CC50 above 200 µM. The IC50 in [5] (setting [13]) was above 10 µM.
As for `COc1ccc([C@@H](CNC(=O)CCc2ccccc2)OC(=O)/C=C/c2ccccc2)cc1OC` [Compound 50, (S)-1-(3,4-dimethoxyphenyl)-2-(3-phenylpropanamido)ethylcinnamate], the melting point fell in the range of 112 to 114 °C. In addition, the IC50 in data set [1] (setting [10]) was above 10 µM. Also, the CC50 in data set [8] is 44.3 µM. Further, in [5] (setting [13]), the IC50 was above 10 µM.
As to `COc1ccc([C@H](CNC(=O)/C=C/c2cc(OC)c(OC)c(OC)c2)OC(=O)/C=C/c2cc(OC)c(OC)c(OC)c2)cc1OC` [Compound 42, (R)-1-(3,4-dimethoxyphenyl)-2-((E)-3-(3,4,5-trimethoxyphenyl)acrylamido)ethyl (E)-3-(3,4,5-trimethoxyphenyl)acrylate], the melting point lay in the range of 138 to 140 °C. The IC50 in data set [1] (setting [9]) lay in the range of 2 to 7 µM. Further, the IC50 in [1] (setting [10]) amounted to 2.28 µM. The “% parasitaemia” value in [3] (setting [11]) was 14.07% and 12.50% and 15.10% and 12.16% and 11.46%. The same compound came in with a CC50 at 72 h in data set [4] of 88.9 µM. Moreover, the IC50 in data set [5] (setting [12]) fell in the range of 1.5 to 4 µM. Moreover, the IC50 in data set [5] (setting [13]) was 2.07 µM.
For the compound `COc1cc([C@@H](CNC(=O)/C=C/c2ccccc2)OC(=O)/C=C/c2ccccc2)cc(OC)c1OC` [Compound 5, (S)-2-cinnamamido-1-(3,4,5-trimethoxyphenyl)ethyl cinnamate], the melting point lay within 126 to 128 °C. Moreover, the IC50 in data set [1] (setting [9]) lay in the range of 2 to 7 µM. The IC50 in data set [1] (setting [10]) worked out at 6.69 µM. In data set [4], the CC50 at 72 h worked out at 66.7 µM. In [5] (setting [12]), the IC50 lay in the range of 1.5 to 4 µM. Moreover, in [5] (setting [13]), the IC50 is 3.64 µM.
In the case of `COc1ccc([C@@H](COC(=O)/C=C/c2cc(OC)c(OC)c(OC)c2)OC(=O)/C=C/c2cc(OC)c(OC)c(OC)c2)cc1OC` [Compound 56, (S)-1-(3,4-dimethoxyphenyl)ethane-1,2-diyl(2E,2′E)-bis(3-(3,4,5-trimethoxyphenyl)acrylate)], the IC50 is 2 to 7 µM in [1] (setting [9]), 2.34 µM in data set [1] (setting [10]), 1.5 to 4 µM in [5] (setting [12]) and 2.62 µM in data set [5] (setting [13]). For the same compound, the “% parasitaemia” value in data set [3] (setting [11]) is 06.06% and 08.31% and 16.23% and 13.92% and 11.13%. The CC50 at 72 h in [4] was 55.7 µM.
In turn, `COc1ccc([C@@H](CNC(=O)CCc2ccccc2)OC(=O)CCc2ccccc2)cc1OC` [Compound 43, (S)-1-(3,4-dimethoxyphenyl)-2-(3-phenylpropanamido)ethyl 3-phenyl propanoate] yielded a melting point of 82 to 84 °C. Further, the IC50 in data set [1] (setting [10]) turned out to be 2.86 µM. In addition, the CC50 at 72 h in data set [4] is 39.3 µM. In addition, the IC50 in data set [5] (setting [13]) was above 10 µM.
In turn, `CCCC(=O)NC[C@@H](OC(=O)/C=C/c1ccccc1)c1ccc(OC)c(OC)c1` [Compound 51, (S)-2-butyramido-1-(3,4-dimethoxyphenyl)ethyl cinnamate] registered a melting point of 93 to 94 °C. Also, the IC50 in [1] (setting [10]) is above 10 µM. The compound further had a CC50 in data set [8] of 42.4 µM. In addition, the IC50 in data set [5] (setting [13]) is above 10 µM.
`COc1ccc([C@@H](CNC(=O)/C=C/c2cc(OC)c(OC)c(OC)c2)OC(=O)/C=C/c2cc(OC)c(OC)c(OC)c2)cc1OC` [Compound 41, (S)-1-(3,4-dimethoxyphenyl)-2-((E)-3-(3,4,5-trimethoxyphenyl)acrylamido)ethyl (E)-3-(3,4,5-trimethoxyphenyl)acrylate]: the melting point was in the range of 138 to 140 °C. The IC50 in data set [1] (setting [9]) lay within 2 to 7 µM. Moreover, in data set [1] (setting [10]), the IC50 was determined as 3.16 µM. Also, in data set [3] (setting [11]), the “% parasitaemia” value was 11.78% and 11.93% and 11.12% and 11.26% and 12.13%. The same compound showed a CC50 at 72 h in [4] of 88 µM. In [5] (setting [12]), the IC50 fell in the range of 1.5 to 4 µM. Also, the IC50 in [5] (setting [13]) is 1.78 µM.
